How the values were obtained:
[1] = tested on: N-ras RNA; assay: RNase H mediated cleavage of N-ras RNA, cell-free system; assay type: biochemical; details: RNase H from E. coli
Method: The ability to cleave N-ras RNA specifically by PNA-DNA chimera directed against N-ras which can induce RNase H was tested in a cell-free system. First, radioactively labelled N-ras RNA was prepared by in vitro transcription.
The plasmid pMS5-NRAS, which is a derivative of pBluescript II KS (±/−) containing the mutant N-ras sequence (codon 13 GGT→CGT) cloned into XbaI/EcoRI sites, was linearized with EcoR1. After phenol extraction and ethanol precipitation the linear DNA was used as template for in vitro transcription. For transcription, the DNA (5 μg) was incubated in a 100 μl mixture containing 10 mM DTT, 40 mM Tris-HCl pH 7.5, 50 mM NaCl, 8 mM MgCl2, 2 mM spermidine, 500 μM of each rNTP, 80 u RNase-inhibitor, 40 μCi [α-^32P]-(ATP) and 250 u T7 RNA polymerase. After incubation for 1 h at 37° C., the DNA was digested by addition of 25 u DNaseI and further incubation for 30 min at 37° C. After extraction with phenol and chloroform, the aqueous phase was transferred into a Centricon tube and centrifuged at 3410 rpm for 30 min. The RNA was analyzed by PAGE (6% PAA, 8 M urea). For the RNase H cleavage the radioactively labelled N-ras RNA (approximately 0.05 nmol; aqueous solution from above) was hybridized with the PNA-DNA chimera speific for N-ras mRNA (6.5 nmol) by heating to 80° C. and cooling to room temperature. […] The cleavage reactions were analyzed by PAGE (6% PAA, 8 M urea) gel.

[2] = tested on: TNF-α; assay: Inhibition of TNF-α expression in THP-1 cells (ELISA); assay type: cell-based, human; details: 0.1-0,5 μM, Cellfectin, PMA/IFNγ stimulation
Method: Cell Culture. The human monocytic cell line, THP-1 was grown in RPMI 1640 supplemented with L-glutamine (GIBCO BRL, Life Technologies, Inc.), 10% heat inactivated fetal bovine serum (GIBCO BRL) and penicillin (100 U/ml)/streptomycin (100 μg/ml). The NIH3T3 permanently producing human TNFα was maintained in 10% DMEM.
Enzyme Linked Immunosorbent Assays (ELISA) for TNFα. The TNFα level was quantified using ELISA kit (Cat. #DTA50) obtained from R&D Systems (Minneapolis, Minn.).
Assay Methods. THP-1 cells (3×10^6) were seeded in 48-well plates in 0.2 ml of Opti-MEM (GIBCO) medium. In a 96-well plate, varying concentrations of PNA-DNA chimera (20 μl) were each added to 20 μl of Cellfectin in Opti-MEM (2.4 μl of 1 mg/ml Cellfectin added to 17.6 μl Opti-MEM) and incubated for 15 min at room temperature. The mixture was then added to the cells dropwise. The final concentration of the Cellfectin was 10 μg/ml in 0.24 ml of Opti-MEM. After 4 hours at 37° C., 0.48 ml of 15% RPMI medium was added to each well (This dilution step was added to inactivate the Cellfectin). The final concentration of cells was ˜1×10^6 calls/ml in 10% RPMI. The cells were then stimulated with a combination of 100 ng/ml of PMA and 300 U/ml of IFNγ. […] The supernatants were analyzed for TNFα.

Substance	induction of RNase H mediated cleavage of N-ras RNA [1]	inhibition of TNF-α expression relative to untreated controls [2]
5′-CCAACA-(Oeg(c))-cgacctgct-hex [Example 57]	able to induce RNase H mediated cleavage	
5′-USCSASGGSUG-(Oeg(t))-cctttgcag-hex [Example 56]		25-35%

— US6919441B2, “Polyamide-oligonucleotide derivatives, their preparation and use” (Aventis Pharma Deutschland GmbH, priority 1995, dated 2005)
